Experimental data as given in patent US12036312B2, “Non-aqueous topical compositions comprising a halogenated salicylanilide” (priority 2016, dated 2024).
Converted amounts (≈) assume the structure as drawn. Read-outs that look alike come from different tables or passages of the source.

Key:
P. acnes = format: cell-based, Propionibacterium acnes; details: for Frequency of mutation/ml: MIC × 4
S. aureus = experiment: MIC assay according to CLSI criteria, Example 2, S. aureus strains; format: cell-based, Staphylococcus aureus; details: Staphylococcus aureus
Source text: Chosen for its relevance regarding bacterial skin infections, the methicillin-resistant S. aureus (MRSA) 01 strain was used as the primary test microorganism. This strain is a community-acquired MRSA clinical isolate of USA 300 type, from a skin abscess.
Two-hundred-four other MRSA and methicillin-sensitive S. aureus strains, and 4 Streptococcus pyogenes strains, were also included in the study. These covered fusidic acid- and mupirocin-resistant strains, these two types of resistance being of clinical relevance.
Strains were conserved in Luria Bertani (LB) Broth (S. aureus) or Brain Heart Infusion (BHI) (S. pyogenes) supplemented with glycerol 15% (v/v) at −80° C., and reactivated by isolation on LB (S. aureus) or BHI (S. pyogenes) agar plates. Strains were cultivated in Mueller Hinton (MH) Broth-cation adjusted (S. aureus) or BHI (S. pyogenes). All strains were cultivated aerobically (microaerobically for S. pyogenes strains) at 37° C.
Bacterial cultures were stopped in their exponential growth phase and plates were inoculated with the approximate concentration of 5×10^5 cells per well. Plates were incubated at 37° C. for 18 hours (S. aureus) or 24 hours (S. pyogenes). Optical density at a wavelength of 600 nm was measured at the end of the incubation time.

C=C[C@]1(C)C[C@@H](OC(=O)CS[C@@H]2C[C@H]3CC[C@@H](C2)N3C)[C@]2(C)[C@H](C)CC[C@]3(CCC(=O)[C@H]32)[C@@H](C)[C@@H]1O [Retapamulin, retapamulin]
frequency of mutation of resistance (P. acnes; P. acnes): ~1×10^−8 | Frequency of mutation/ml (P. acnes; P. acnes strain 998): 2.17e-08 mL⁻¹ | Frequency of mutation/ml (P. acnes; P. acnes strain 1044): 1.09e-08 mL⁻¹ | Frequency of mutation/ml (P. acnes; P. acnes strain CSS3023): 1.46e-08 mL⁻¹ | Frequency of mutation/ml (P. acnes; P. acnes strain CSS3288): 1.25e-08 mL⁻¹ | MIC (S. aureus; ATCC29213, strain ATCC 29213): 0.03 µg/mL (≈ 0.0579 µM) | MIC (S. aureus; MRSA, strain MRSA 01): 0.06 µg/mL (≈ 0.116 µM) | MIC (S. aureus; MRSA, strain MRSA 02): 0.06 µg/mL (≈ 0.116 µM) | MIC (S. aureus; MRSA, strain MRSA 03): 0.03 µg/mL (≈ 0.0579 µM) | MIC (S. aureus; MRSA, strain MRSA 04): 0.06 µg/mL (≈ 0.116 µM) | MIC (S. aureus; MRSA, strain MRSA 05): 0.03 µg/mL (≈ 0.0579 µM) | MIC (S. aureus; MRSA, strain MRSA 06): 0.03 µg/mL (≈ 0.0579 µM) | MIC (S. aureus; MRSA, strain MRSA 07): 0.06 µg/mL (≈ 0.116 µM) | MIC (S. aureus; MRSA, strain MRSA 08): 0.03 µg/mL (≈ 0.0579 µM) | MIC (S. aureus; MRSA, strain MRSA 09): 0.06 µg/mL (≈ 0.116 µM) | MIC (S. aureus; MRSA, strain MRSA 10): 0.06 µg/mL (≈ 0.116 µM) | MIC (S. aureus; MRSA, strain MRSA 11): 0.06 µg/mL (≈ 0.116 µM) | MIC (S. aureus; MRSA, strain MRSA 12): 0.03 µg/mL (≈ 0.0579 µM) | MIC (S. aureus; MRSA, strain MRSA 13): 0.06 µg/mL (≈ 0.116 µM) | MIC (S. aureus; MRSA, strain MRSA 14): 0.03 µg/mL (≈ 0.0579 µM) | MIC (S. aureus; MRSA, strain MRSA 15): 0.06 µg/mL (≈ 0.116 µM) | MIC (S. aureus; MRSA, strain MRSA 16): 0.06 µg/mL (≈ 0.116 µM) | MIC (S. aureus; MRSA, strain MRSA 17): 0.03 µg/mL (≈ 0.0579 µM) | MIC (S. aureus; MRSA, strain MRSA 18): 0.06 µg/mL (≈ 0.116 µM) | MIC (S. aureus; MRSA, strain MRSA 19): 0.03 µg/mL (≈ 0.0579 µM) | MIC (S. aureus; MRSA, strain MRSA 20): 0.06 µg/mL (≈ 0.116 µM) | MIC (S. aureus; MRSA, strain MRSA 21): 0.125 µg/mL (≈ 0.241 µM) | MIC (S. aureus; MRSA, strain MRSA 22): 0.06 µg/mL (≈ 0.116 µM) | MIC (S. aureus; MRSA, strain MRSA 23): 0.06 µg/mL (≈ 0.116 µM) | MIC (S. aureus; MRSA, strain MRSA 24): 0.06 µg/mL (≈ 0.116 µM) | MIC (S. aureus; MRSA, strain MRSA 25): 0.06 µg/mL (≈ 0.116 µM) | MIC (S. aureus; MRSA, strain MRSA 26): 0.06 µg/mL (≈ 0.116 µM) | MIC (S. aureus; MRSA, strain MRSA 27): 0.06 µg/mL (≈ 0.116 µM) | MIC (S. aureus; MRSA, strain MRSA 27b): 0.02 µg/mL (≈ 0.0386 µM) | MIC (S. aureus; MRSA, strain MRSA 28): 0.03 µg/mL (≈ 0.0579 µM) | MIC (S. aureus; MRSA, strain MRSA 29): 0.06 µg/mL (≈ 0.116 µM) | MIC (S. aureus; MRSA, strain MRSA 30): 0.03 µg/mL (≈ 0.0579 µM) | MIC (S. aureus; MRSA, strain MRSA 31): 16 µg/mL (≈ 30.9 µM) | MIC (S. aureus; MRSA, strain MRSA 32): 0.06 µg/mL (≈ 0.116 µM) | MIC (S. aureus; MRSA, strain MRSA 33): 0.06 µg/mL (≈ 0.116 µM) | MIC (S. aureus; MRSA, strain MRSA 34): 0.06 µg/mL (≈ 0.116 µM) | MIC (S. aureus; MRSA, strain MRSA 35): 0.03 µg/mL (≈ 0.0579 µM) | MIC (S. aureus; MRSA, strain MRSA 36): 0.06 µg/mL (≈ 0.116 µM) | MIC (S. aureus; MRSA, strain MRSA 37): 0.06 µg/mL (≈ 0.116 µM) | MIC (S. aureus; MRSA, strain MRSA 38): 0.06 µg/mL (≈ 0.116 µM) | MIC (S. aureus; MRSA, strain MRSA 39): 0.06 µg/mL (≈ 0.116 µM) | MIC (S. aureus; MRSA, strain MRSA 40): 0.03 µg/mL (≈ 0.0579 µM) | MIC (S. aureus; MRSA, strain MRSA 41): 0.02 µg/mL (≈ 0.0386 µM) | MIC (S. aureus; MRSA, strain MRSA 42): 0.06 µg/mL (≈ 0.116 µM) | MIC (S. aureus; MRSA, strain MRSA 43): 0.06 µg/mL (≈ 0.116 µM) | MIC (S. aureus; MRSA, strain MRSA 44): 0.02 µg/mL (≈ 0.0386 µM) | MIC (S. aureus; MRSA, strain MRSA 45): 0.02 µg/mL (≈ 0.0386 µM) | MIC (S. aureus; MRSA, strain MRSA 46): 0.02 µg/mL (≈ 0.0386 µM) | MIC (S. aureus; MRSA, strain MRSA 47): 0.02 µg/mL (≈ 0.0386 µM) | MIC (S. aureus; MRSA, strain MRSA 48): 0.02 µg/mL (≈ 0.0386 µM) | MIC (S. aureus; MRSA, strain MRSA 49): 0.02 µg/mL (≈ 0.0386 µM) | MIC (S. aureus; MRSA, strain MRSA 50): 0.02 µg/mL (≈ 0.0386 µM) | MIC (S. aureus; MRSA, strain MRSA 51): 0.03 µg/mL (≈ 0.0579 µM) | MIC (S. aureus; MRSA, strain MRSA 52): 0.02 µg/mL (≈ 0.0386 µM) | MIC (S. aureus; MRSA, strain MRSA 53): 0.03 µg/mL (≈ 0.0579 µM) | MIC (S. aureus; MRSA, strain MRSA 54): 0.03 µg/mL (≈ 0.0579 µM) | MIC (S. aureus; MRSA, strain MRSA 55): 0.02 µg/mL (≈ 0.0386 µM) | MIC (S. aureus; MRSA, strain MRSA 56): < 0.01 µg/mL | MIC (S. aureus; MRSA, strain MRSA 57): 0.02 µg/mL (≈ 0.0386 µM) | MIC (S. aureus; MRSA, strain MRSA 58): 0.02 µg/mL (≈ 0.0386 µM) | MIC (S. aureus; MRSA, strain MRSA 59): 0.02 µg/mL (≈ 0.0386 µM) | MIC (S. aureus; MRSA, strain MRSA 60): 0.02 µg/mL (≈ 0.0386 µM) | MIC (S. aureus; MRSA, strain MRSA 61): 0.02 µg/mL (≈ 0.0386 µM) | MIC (S. aureus; MRSA, strain MRSA 62): 0.02 µg/mL (≈ 0.0386 µM) | MIC (S. aureus; MRSA, strain MRSA 63): 0.02 µg/mL (≈ 0.0386 µM) | MIC (S. aureus; MRSA, strain MRSA 64): 0.02 µg/mL (≈ 0.0386 µM) | MIC (S. aureus; MRSA, strain MRSA 65): 0.02 µg/mL (≈ 0.0386 µM) | MIC (S. aureus; MRSA, strain MRSA 66): 0.02 µg/mL (≈ 0.0386 µM) | MIC (S. aureus; MRSA, strain MRSA 67): 0.02 µg/mL (≈ 0.0386 µM) | MIC (S. aureus; MRSA, strain MRSA 68): 0.02 µg/mL (≈ 0.0386 µM) | MIC (S. aureus; MRSA, strain MRSA 69): < 0.01 µg/mL | MIC (S. aureus; MRSA, strain MRSA 70): 0.02 µg/mL (≈ 0.0386 µM) | MIC (S. aureus; MRSA, strain MRSA 71): < 0.01 µg/mL | MIC (S. aureus; MRSA, strain MRSA 72): 0.03 µg/mL (≈ 0.0579 µM) | MIC (S. aureus; MRSA, strain MRSA 73): 0.03 µg/mL (≈ 0.0579 µM) | MIC (S. aureus; MRSA, strain MRSA 74): 0.03 µg/mL (≈ 0.0579 µM) | MIC (S. aureus; MRSA, strain MRSA 75): 0.03 µg/mL (≈ 0.0579 µM) | MIC (S. aureus; MRSA, strain MRSA 76): 0.03 µg/mL (≈ 0.0579 µM) | MIC (S. aureus; MRSA, strain MRSA 77): 0.03 µg/mL (≈ 0.0579 µM) | MIC (S. aureus; MRSA, strain MRSA 78): 0.03 µg/mL (≈ 0.0579 µM) | MIC (S. aureus; MRSA, strain MRSA 79): < 0.01 µg/mL | MIC (S. aureus; MRSA, strain MRSA 80): 0.02 µg/mL (≈ 0.0386 µM) | MIC (S. aureus; MRSA, strain MRSA 81): 0.03 µg/mL (≈ 0.0579 µM) | MIC (S. aureus; MRSA, strain MRSA 82): 0.03 µg/mL (≈ 0.0579 µM) | MIC (S. aureus; MRSA, strain MRSA 83): 0.03 µg/mL (≈ 0.0579 µM) | MIC (S. aureus; MRSA, strain MRSA 84): 0.03 µg/mL (≈ 0.0579 µM) | MIC (S. aureus; MRSA, strain MRSA 85): 0.03 µg/mL (≈ 0.0579 µM) | MIC (S. aureus; MRSA, strain MRSA 86): 0.03 µg/mL (≈ 0.0579 µM) | MIC (S. aureus; MRSA, strain MRSA 87): 0.02 µg/mL (≈ 0.0386 µM) | MIC (S. aureus; MRSA, strain MRSA 88): 0.03 µg/mL (≈ 0.0579 µM) | MIC (S. aureus; MRSA, strain MRSA 89): 0.02 µg/mL (≈ 0.0386 µM) | MIC (S. aureus; MRSA, strain MRSA 90): 0.06 µg/mL (≈ 0.116 µM) | MIC (S. aureus; MRSA, strain MRSA 91): 0.06 µg/mL (≈ 0.116 µM) | MIC (S. aureus; MRSA, strain MRSA 92): 0.06 µg/mL (≈ 0.116 µM) | MIC (S. aureus; MRSA, strain MRSA 93): 0.02 µg/mL (≈ 0.0386 µM) | MIC (S. aureus; MRSA, strain MRSA 94): 0.03 µg/mL (≈ 0.0579 µM) | MIC (S. aureus; MRSA, strain MRSA 95): 0.03 µg/mL (≈ 0.0579 µM) | MIC (S. aureus; MRSA, strain MRSA 96): 0.03 µg/mL (≈ 0.0579 µM) | MIC (S. aureus; MRSA, strain MRSA 97): 0.03 µg/mL (≈ 0.0579 µM) | MIC (S. aureus; MRSA, strain MRSA 98): 0.03 µg/mL (≈ 0.0579 µM)
